Counter-ions that a name gives are not always drawn. Like-named read-outs stand apart in the source and are kept apart here.
Assays:
[1] = test system: Nannochloris sp.; assay: Microplate assay: growth (absorbance 680 nm) and intracellular lipids (Nile Red fluorescence); type: cell-based; details: for Absorbance (percent increase) / Nile Red percent increase: initial microplate screen, relative to control
[2] = test system: Nannochloropsis salina; details: for % Lipid increase based on Nile red fluorescence intensity / % Increase based on Nile Red Fluorescence Intensity / Nile Red Fluorescence % Increase / % Inc / % change in abs / % in NR fl: N. salina; for % Lipid increase based on Nile red fluorescence intensity: DMSO, t=day 0; for % Increase based on Nile Red Fluorescence Intensity: added t=day 0; for Nile Red Fluorescence % Increase: compounds tested at 20 μM, initial screening, p<0.05; for % Inc: increase of lipid production; for Nile Red percent increase: dose-response microplate screen
[3] = test system: Phaeodactylum tricornutum; assay: Microplate assay: growth (absorbance 680 nm) and intracellular lipids (Nile Red fluorescence); type: cell-based; details: for % Inc: increase of lipid production; for % Inc / Nile Red Fluorescence % Increase / % change in abs / % in NR fl: P. tricornutum; for Nile Red Fluorescence % Increase: compounds tested at 200 nM, initial screening, p<0.05
[4] = Nannochloris sp., compounds tested at 200 nM, initial screening, p<0.05
[5] = Nannochloris sp., compounds tested at 20 μM, initial screening, p<0.05
[6] = 200 nM, initial microplate screen, relative to control
[7] = Nannochloris sp., 49 nM, dissolved in water, added t=day 0

With `C/C=C/C/C=C/CCC(=O)[C@H]1O[C@H]1C(N)=O` [Cerulenin, (2R,3S)-3-[(4E,7E)-Nona-4,7-dienoyl]oxirane-2-carboxamide] the “Absorbance (percent increase)” value ([1]; 200 nM) was −13.2%, the “Nile Red percent increase” value ([1]; 200 nM) was 94.6% and the “Nile Red Fluorescence % Increase” value [1, 4] was 107.9%.
`O=C1NC(=O)c2c1c1c3ccccc3[nH]c1c1[nH]c3cc(Br)ccc3c21` [CDK4 I1, 2-Bromo-12,13-dihydro-5H-indolo[2,3-a]pyrrolo[3,4-c]carbazole-5,7(6H)-dione] was tested, and the “% Lipid increase based on Nile red fluorescence intensity” value (from here on “% Lipid increase based”) ([2]; 40 μM) was 49%, the “% Increase based on Nile Red Fluorescence Intensity” value (“% Increase based” for short) ([2]; 40 μM, DMSO delivery) was 49% and the “Nile Red percent increase” value ([3]; 40 μM, dose-response microplate screen) was 129%. For the same compound, the “% Inc” value ([3]; best conc. 10 μM) was 68.76%.
`CC(=O)N1CCN(c2ccc(OC[C@H]3CO[C@](Cn4ccnc4)(c4ccc(Cl)cc4Cl)O3)cc2)CC1` (relative stereo) [Ketoconazole, cis-1-Acetyl-4-[4-[[2-(2,4-dichlorophenyl)-2-(1H-imidazol-1-ylmethyl)-1,3-dioxolan-4-yl]methoxy]phenyl]piperazine] was tested, and the “Nile Red Fluorescence % Increase” value [1, 4] was 258.9% and the “Nile Red Fluorescence % Increase” value [2] was 32.0%.
With `C=C1C[C@]23C[C@@]1(O)CC[C@H]2[C@@]12C=C[C@H](O)[C@@](C)(C(=O)O1)[C@H]2[C@@H]3C(=O)O` [Giberellic acid, (3S,3aS,4S,4aS,6S,8aR,8bR,11S)-6,11-Dihydroxy-3-methyl-12-methylene-2-oxo-4a,6-ethano-3,8bprop-1-enoperhydroindeno[1,2-b]furan-4-ca] the “Absorbance (percent increase)” value ([1]; 200 nM) was −1.1% and the “Nile Red percent increase” value ([1]; 200 nM) was 70.4%.
With `CC[C@H](CO)Nc1nc(NCc2ccccc2)c2ncn(C(C)C)c2n1` [Roscovitine] the “Nile Red Fluorescence % Increase” value [1] was 30.8%.
With `O=C(O)CC(O)(CC(=O)O)C(=O)O` [Citric acid, 2-hydroxypropane-1,2,3-tricarboxylic acid] the “Absorbance (percent increase)” value ([1]; 200 nM) was −6.5% and the “Nile Red percent increase” value ([1]; 200 nM) was 55.41%.
For `Cn1c(=O)c2c(ncn2C)n(C)c1=O` [Caffeine, 1,3,7-trimethyl-1H-purine-2,6(3H,7H)-dione], the “Absorbance (percent increase)” value ([1]; 200 nM) was −7.5% and the “Nile Red percent increase” value ([1]; 200 nM) was 60.4%.
In the case of `O=C1C(Cl)=C(NCCN2CCOCC2)C(=O)c2ncccc21` [CDC25], the “Nile Red Fluorescence % Increase” value [1, 4] is reported as 28.2% and the “Nile Red Fluorescence % Increase” value [1, 5] is reported as 130.9%.
`CN(NO)C1=CC(=O)C(=O)C=C1` [3,4-dephostatin, 4-[(hydroxyamino)-methylamino]cyclohexa-3,5-diene-1,2-dione] was tested, and the “% increase (lipid production)” value ([2]; 0.0252-55.2 nM) was 8-40%, the “% increase (lipid production)” value ([2]; 0.0252-165.6 nM (H2O)) was 14-72% and the “% increase (lipid production)” value ([3]; 0.0252-165.6 nM (H2O)) was 5-46%. The “% increase (lipid production)” value ([3]; 0.0252-165.6 nM, not marked H2O) was 12-33%.
For `c1coc(CNc2ncnc3nc[nH]c23)c1` [Kinetin, N^6-furfuryladenine], the “Absorbance (percent increase)” value ([1]; 200 nM) was −9.0%, the “Nile Red percent increase” value ([1]; 200 nM) was 72.4% and the “Nile Red Fluorescence % Increase” value [3] was 25.2%. The “% Inc” value ([3]; best conc. 39 nM) was 76.29%.
`Oc1cc(O)c2c(c1)O[C@H](c1ccc(O)c(O)c1)[C@@H](O)C2` [(+)-Catechin, (2R,3S)-2-(3,4-dihydroxyphenyl)-3,4-dihydro-2H-chromene-3,5,7-triol] was tested, and the “% Inc” value ([2]; best conc. 39 nM) was 84.21%.
In the case of `CC/C=C\C[C@H]1C(=O)CC[C@@H]1CC(=O)O` [Jasmonic acid, (1R,2R)-3-Oxo-2-(2Z)-2-pentenyl-cyclopentaneacetic acid], the “Absorbance (percent increase)” value ([1]; 200 nM) is reported as −7.6%, the “Nile Red percent increase” value ([1]; 200 nM) is reported as 87.5% and the “Nile Red Fluorescence % Increase” value [1, 4] is reported as 80.5%.
In the case of `O=C1Cc2c([nH]c3ccc(Br)cc23)-c2ccccc2N1` [Kenpaullone, 9-Bromo-7,12-dihydro-indolo[3,2-d][1]benzazepin-6(5H)-one], the “Absorbance (percent increase)” value ([1]; 200 nM) is reported as −8.1%, the “Nile Red percent increase” value ([1]; 200 nM) is reported as 77.5% and the “Nile Red Fluorescence % Increase” value [1, 5] is reported as 97.7%. The “Nile Red Fluorescence % Increase” value [2] was 34.8%.
In the case of `CCCCCCCCCCCCCCCC(=O)C(F)(F)F` [PTFK, 1,1,1-Trifluoro-2-heptadecanone], the “% change in abs” value ([3]; 13 nM) is reported as 3.22%, the “% in NR fl” value ([3]; 13 nM) is reported as 70.44% and the “% change in abs” value ([3]; 41.2 nM) is reported as 5.05%. For the same compound, the “% in NR fl” value ([3]; 41.2 nM) was 67.59%.
`COc1ccc2[nH]cc(CCNC(C)=O)c2c1` [Melatonin, N-Acetyl-5-methoxytryptamine] was tested, and the “% Inc” value ([3]; best conc. 40 μM) was 47.80%.
With `O=c1cc(-c2ccc(O)cc2)oc2cc(O)cc(O)c12` [Apigenin, 5,7-Dihydroxy-2-(4-hydroxyphenyl)-4H-1-benzopyran-4-one] the “Absorbance (percent increase)” value ([1]; 20 μM) was −7.3%, the “Nile Red percent increase” value ([1]; 20 μM) was 59.9% and the “Nile Red Fluorescence % Increase” value [1, 5] was 136.7%. For the same compound, the “Nile Red Fluorescence % Increase” value [2] was 34.3% and the “% Inc” value ([2]; best conc. 39 nM) was 90.17%.
`O=c1ccc2cc(O)c(O)cc2o1` [Esculetin, 6,7-Dihydroxy-2-chromenone] was tested, and the “% increase (lipid production)” value ([2]; 0.0252-6.13 nM (H2O)) was 5-31 (H2O) %, the “% increase (lipid production)” value ([2]; 0.0757-55.2 nM, DMSO delivery) was 1-30% and the “% Lipid increase based” value ([2]; 6.13 nM) was 62%. The “% Increase based” value ([2]; 681 pM, DMSO delivery) was 50%, the “% Increase based” value ([2]; 6.13 nM, DMSO delivery) was 62% and the “% increase (lipid production)” value ([3]; 0.0252-18.4 nM) was 3-79%.
`Cc1ncc(C[n+]2csc(CCO)c2C)c(N)n1` [Thiamine, Aneurine hydrochloride, Vitamin B1 hydrochloride] was tested, and the “Absorbance (percent increase)” value ([1]; 200 nM) was −12.1% and the “Nile Red percent increase” value ([1]; 200 nM) was 122.6%.
With `c1ccc2ncncc2c1` [Quinazoline, Benzopyrimidine] the “% increase (lipid production)” value ([2]; […]-40 μM) was “(none)” and the “% increase (lipid production)” value ([3]; 4-40 μM (H2O)) was 15-26 (H2O) %.
With `c1ccc(CNc2ncnc3[nH]cnc23)cc1` [Benzylamino Purine] the “% Inc” value ([3]; best conc. 40 μM) was 120.94%.
`CC/C=C\CC1C(=O)CCC1CC(=O)OC` (stereo not shown) [Methyl jasmonate] was tested, and the “% Lipid increase based” value ([2]; 13 nM) was 85% and the “% Increase based” value ([2]; 13 nM, DMSO delivery) was 85%.
With `c1ccc(CNc2ncnc3nc[nH]c23)cc1` [Benzylaminopurine, N-(phenylmethyl)-7H-purin-6-amine] the “Absorbance (percent increase)” value [3, 6] was −14.6%, the “Nile Red percent increase” value [3, 6] was 105.9% and the “Nile Red Fluorescence % Increase” value [3] was 105.9%.
`CC(C)Cc1ccc(C(C)C(=O)O)cc1` (stereo not shown) [Ibuprofen] was tested, and the “Nile Red Fluorescence % Increase” value [1, 5] was 80.2% and the “Nile Red Fluorescence % Increase” value [2] was 59.0%.
In the case of `COc1ccc2c(c1)c(CC(=O)O)c(C)n2C(=O)c1ccc(Cl)cc1` [Indomethacin, 1-(4-Chlorobenzoyl)-5-methoxy-2-methyl-3-indoleacetic acid], the “% Increase based” value [1, 7] is reported as 81%, the “Nile Red percent increase” value ([2]; 55 nM) is reported as 118% and the “% Lipid increase based” value ([2]; 123.5 nM) is reported as 61%. The “% Increase based” value ([2]; 123.5 nM, DMSO delivery) was 61%.
In the case of `NC(=O)c1cccc(-c2cccc(OC(=O)NC3CCCCC3)c2)c1` [FAAH Inhibitor II, 3′-Carbamoyl-biphenyl-3-yl-cyclohexylcarbamate], the “% Increase based” value [1] is reported as 167%, the “% Lipid increase based” value ([1]; Nannochloris sp., 0.6 nM, (water), t=day 0) is reported as 182% and the “% Increase based” value ([1]; Nannochloris sp., 0.2 nM, dissolved in water, added t=day 0) is reported as 145%. The “% Increase based” value ([1]; Nannochloris sp., 0.6 nM, dissolved in water, added t=day 0) was 182%, the “% Increase based” value [1, 7] was 154% and the “% Increase based” value ([1]; Nannochloris sp., 1.3 μM, dissolved in water, added t=day 0) was 144%.
In the case of Indole acetic acid, the “Nile Red Fluorescence % Increase” value [1] is reported as 95.4%.
With `O=C1O[C@H]([C@@H](O)CO)C(O)=C1O` [Ascorbic acid, (2R)-2-[(1S)-1,2-dihydroxyethyl]-3,4-dihydroxy-2H-furan-5-one] the “% Inc” value ([3]; best conc. 10 nM) was 57.28%.
`O=C1Cc2c([nH]c3ccc(Br)cc23)-c2ccccc2N1` [Kenpaulllone] was tested, and the “Nile Red Fluorescence % Increase” value [1, 4] was 84.2%.
With `O=c1c(O)c(-c2ccc(O)c(O)c2)oc2cc(O)cc(O)c12` [Quercetin, 2-(3,4-dihydroxyphenyl)-3,5,7-trihydroxy-4H-chromen-4-one] the “Absorbance (percent increase)” value ([1]; 200 nM) was −1.6% and the “Nile Red percent increase” value ([1]; 200 nM) was 63.5%.
In the case of `CCNc1cc(N[C@H]2CC[C@H](O)CC2)nc(Nc2ccc3c(ccn3Cc3ccccc3)c2)n1` [CDK4 I4, trans-4-((6-(ethylamino)-2-((1-(phenylmethyl)-1H-indol-5-yl)amino)-4-pyrimidinyl)amino)-cyclohexanol], the “Nile Red percent increase” value ([2]; 40 μM) is reported as 144% and the “% Inc” value ([2]; best conc. 40 μM) is reported as 144.22%.
In the case of `CCC(C)Nc1ccc(NC(C)CC)cc1` (stereo not shown) [N,N′-di-sec-butyl-p-phenylenediamine, 1-N,4-N-di(butan-2-yl)benzene-1,4-diamine], the “% Inc” value ([3]; best conc. 156 nM) is reported as 39.51%.
In the case of `O=C(Oc1ccc([N+](=O)[O-])cc1)N1CCC(C(O)(c2ccc3c(c2)OCO3)c2ccc3c(c2)OCO3)CC1` [JZL 184 hydrate, 4-nitrophenyl-4-[bis(1,3-benzodioxol-5-yl)(hydroxy)methyl]piperidine-1-carboxylate], the “% change in abs” value ([2]; 3.3 μM) is reported as −12.15%, the “% in NR fl” value ([2]; 3.3 μM) is reported as 95.70% and the “% change in abs” value ([2]; 10 μM) is reported as 13.75%. For the same compound, the “% in NR fl” value ([2]; 10 μM) was 86.72%, the “% change in abs” value ([2]; 40 μM) was 0.61% and the “% in NR fl” value ([2]; 40 μM) was 118.99%. For the same compound, the “% Lipid increase based” value ([2]; 40 μM) was 119% and the “% Increase based” value ([2]; 40 μM, DMSO delivery) was 119%.
`COc1ccc2cc([C@H](C)C(=O)O)ccc2c1` [Naproxen, (S)-(+)-2-(6-Methoxy-2-naphthyl)propionic acid] was tested, and the “% Inc” value ([2]; best conc. 156 nM) was 67.44%.
In the case of `CCNc1nc(Cl)nc(NC(C)C)n1` [Atrazane, 1-Chloro-3-ethylamino-5-isopropylamino-2,4,6-triazine], the “Absorbance (percent increase)” value ([1]; 200 nM) is reported as −1.7% and the “Nile Red percent increase” value ([1]; 200 nM) is reported as 86.2%.
